Results from patent publication US10344060B2 (priority 2013, dated 2019).
Values joined by “and” are separate entries in the source; they are usually repeats but may differ in a detail not shown here. Equal values may be shown once. Read-outs that look alike come from different tables or passages of the source.

Legend:
hNav1.4 = hNav1.4 (Homo sapiens, UniProt P35499); assay: cell-based; assay type: cell-based; settings: Table 13; ratio of PX tonic IC50 values
hNav1.7 = hNav1.7 (Homo sapiens, UniProt Q15858); assay: cell-based; assay type: cell-based
Chain of hNav1.7 (Q15858 whole entry): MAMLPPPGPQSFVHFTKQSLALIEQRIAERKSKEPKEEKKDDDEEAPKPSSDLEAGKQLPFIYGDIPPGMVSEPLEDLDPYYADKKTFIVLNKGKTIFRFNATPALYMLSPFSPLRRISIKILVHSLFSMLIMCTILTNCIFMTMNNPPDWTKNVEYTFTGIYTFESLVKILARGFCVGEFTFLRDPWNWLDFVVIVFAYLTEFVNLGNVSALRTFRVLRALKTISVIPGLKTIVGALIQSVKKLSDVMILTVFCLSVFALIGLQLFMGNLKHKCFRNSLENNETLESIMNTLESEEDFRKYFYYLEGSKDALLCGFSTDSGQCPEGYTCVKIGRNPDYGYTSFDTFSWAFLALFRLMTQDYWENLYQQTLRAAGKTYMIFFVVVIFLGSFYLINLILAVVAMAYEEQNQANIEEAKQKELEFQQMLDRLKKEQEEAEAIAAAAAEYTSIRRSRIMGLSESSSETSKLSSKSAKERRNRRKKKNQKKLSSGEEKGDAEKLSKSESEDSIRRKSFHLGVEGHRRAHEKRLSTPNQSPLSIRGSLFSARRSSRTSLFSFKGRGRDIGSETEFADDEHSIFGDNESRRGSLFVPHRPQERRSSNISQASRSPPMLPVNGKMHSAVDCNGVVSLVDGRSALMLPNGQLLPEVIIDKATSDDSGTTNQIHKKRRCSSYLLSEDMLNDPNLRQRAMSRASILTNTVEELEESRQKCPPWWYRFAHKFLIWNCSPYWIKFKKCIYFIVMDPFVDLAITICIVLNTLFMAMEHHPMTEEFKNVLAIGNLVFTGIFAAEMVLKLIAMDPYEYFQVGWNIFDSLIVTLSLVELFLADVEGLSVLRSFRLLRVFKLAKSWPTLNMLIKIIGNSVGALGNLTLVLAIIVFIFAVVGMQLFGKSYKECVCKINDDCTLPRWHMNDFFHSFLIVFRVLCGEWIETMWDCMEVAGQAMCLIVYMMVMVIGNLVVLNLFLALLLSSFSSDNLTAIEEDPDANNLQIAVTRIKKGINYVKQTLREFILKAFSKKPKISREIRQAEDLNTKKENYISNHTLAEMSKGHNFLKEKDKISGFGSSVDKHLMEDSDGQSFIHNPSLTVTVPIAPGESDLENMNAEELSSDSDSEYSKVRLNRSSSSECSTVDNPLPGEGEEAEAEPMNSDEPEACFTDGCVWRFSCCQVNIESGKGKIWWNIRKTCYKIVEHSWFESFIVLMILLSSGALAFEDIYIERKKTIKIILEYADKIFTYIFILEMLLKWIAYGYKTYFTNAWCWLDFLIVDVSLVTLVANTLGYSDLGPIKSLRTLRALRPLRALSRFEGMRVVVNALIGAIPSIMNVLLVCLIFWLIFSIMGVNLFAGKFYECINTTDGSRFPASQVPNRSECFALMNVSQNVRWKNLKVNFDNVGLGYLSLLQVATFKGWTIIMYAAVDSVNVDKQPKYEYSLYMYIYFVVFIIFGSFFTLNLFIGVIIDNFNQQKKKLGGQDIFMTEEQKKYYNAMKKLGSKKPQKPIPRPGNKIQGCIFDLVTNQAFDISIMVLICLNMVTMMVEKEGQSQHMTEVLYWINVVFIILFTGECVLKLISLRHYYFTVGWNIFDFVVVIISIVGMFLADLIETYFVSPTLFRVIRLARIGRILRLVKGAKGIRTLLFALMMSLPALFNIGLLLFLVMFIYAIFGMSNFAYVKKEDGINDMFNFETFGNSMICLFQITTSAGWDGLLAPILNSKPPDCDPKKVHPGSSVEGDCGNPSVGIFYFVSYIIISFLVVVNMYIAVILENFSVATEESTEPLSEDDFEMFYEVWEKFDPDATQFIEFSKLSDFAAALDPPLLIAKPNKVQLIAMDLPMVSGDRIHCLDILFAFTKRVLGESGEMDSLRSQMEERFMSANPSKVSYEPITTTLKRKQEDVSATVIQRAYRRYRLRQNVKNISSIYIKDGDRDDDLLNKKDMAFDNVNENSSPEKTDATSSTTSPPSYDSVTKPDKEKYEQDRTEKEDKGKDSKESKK

Chain of hNav1.4 (P35499 whole entry): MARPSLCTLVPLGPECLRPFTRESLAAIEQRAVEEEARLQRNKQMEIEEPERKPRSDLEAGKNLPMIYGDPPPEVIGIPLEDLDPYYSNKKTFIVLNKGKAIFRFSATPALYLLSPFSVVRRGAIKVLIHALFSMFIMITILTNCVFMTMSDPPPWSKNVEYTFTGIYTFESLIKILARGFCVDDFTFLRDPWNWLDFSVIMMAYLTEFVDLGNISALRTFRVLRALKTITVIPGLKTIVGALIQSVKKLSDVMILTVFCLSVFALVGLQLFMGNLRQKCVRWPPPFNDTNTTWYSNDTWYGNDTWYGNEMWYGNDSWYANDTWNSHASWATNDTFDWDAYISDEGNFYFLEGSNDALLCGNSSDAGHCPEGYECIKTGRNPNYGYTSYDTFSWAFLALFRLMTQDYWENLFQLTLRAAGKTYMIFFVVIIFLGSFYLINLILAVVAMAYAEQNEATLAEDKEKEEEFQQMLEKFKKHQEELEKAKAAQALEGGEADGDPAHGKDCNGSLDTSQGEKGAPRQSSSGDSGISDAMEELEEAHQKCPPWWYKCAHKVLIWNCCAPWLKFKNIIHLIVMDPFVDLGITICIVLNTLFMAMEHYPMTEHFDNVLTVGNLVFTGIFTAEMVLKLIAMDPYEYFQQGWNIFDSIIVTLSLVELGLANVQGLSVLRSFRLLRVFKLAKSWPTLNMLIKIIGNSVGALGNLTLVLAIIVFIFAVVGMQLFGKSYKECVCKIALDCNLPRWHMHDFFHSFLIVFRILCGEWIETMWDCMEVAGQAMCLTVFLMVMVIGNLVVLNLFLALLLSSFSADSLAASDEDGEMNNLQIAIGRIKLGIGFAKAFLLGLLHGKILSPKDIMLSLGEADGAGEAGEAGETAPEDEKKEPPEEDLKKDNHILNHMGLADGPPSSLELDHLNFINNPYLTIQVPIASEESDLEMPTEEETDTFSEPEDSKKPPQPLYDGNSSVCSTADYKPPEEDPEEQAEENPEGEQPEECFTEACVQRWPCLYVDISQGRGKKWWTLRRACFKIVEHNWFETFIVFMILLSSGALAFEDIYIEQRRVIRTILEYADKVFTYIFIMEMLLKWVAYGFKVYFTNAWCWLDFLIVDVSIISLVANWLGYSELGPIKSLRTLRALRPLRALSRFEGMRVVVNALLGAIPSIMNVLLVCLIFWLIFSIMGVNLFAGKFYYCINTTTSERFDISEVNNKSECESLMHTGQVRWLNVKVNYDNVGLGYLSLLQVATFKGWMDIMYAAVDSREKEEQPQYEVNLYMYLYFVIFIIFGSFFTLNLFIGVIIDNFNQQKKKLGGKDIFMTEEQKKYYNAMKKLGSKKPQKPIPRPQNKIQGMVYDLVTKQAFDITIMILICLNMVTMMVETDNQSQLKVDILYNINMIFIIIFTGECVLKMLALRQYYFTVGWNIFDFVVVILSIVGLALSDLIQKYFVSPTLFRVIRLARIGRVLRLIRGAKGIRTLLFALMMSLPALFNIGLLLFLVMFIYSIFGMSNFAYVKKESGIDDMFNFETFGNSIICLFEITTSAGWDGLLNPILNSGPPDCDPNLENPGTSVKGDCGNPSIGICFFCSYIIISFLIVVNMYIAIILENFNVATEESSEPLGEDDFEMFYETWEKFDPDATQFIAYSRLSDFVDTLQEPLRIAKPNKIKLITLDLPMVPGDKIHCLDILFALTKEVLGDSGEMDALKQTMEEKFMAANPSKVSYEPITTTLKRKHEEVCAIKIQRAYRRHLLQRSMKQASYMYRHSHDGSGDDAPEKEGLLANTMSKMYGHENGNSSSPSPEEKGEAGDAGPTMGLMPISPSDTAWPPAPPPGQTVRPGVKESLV

With `CCCC[C@@H]1NC(=O)[C@H](Cc2c[nH]c3ccccc23)NC(=O)[C@H](CCCCN)NC(=O)[C@H](CCC(N)=O)NC(=O)[C@@H](NC(=O)[C@H](Cc2ccc(O)cc2)NC(=O)[C@@H](N)Cc2cn(CCOCCOCCOCCOCCOCCOCCOCCOCCOCCOCCOCCOCCOCCOCCOCCOCCOCCOCCOCCOCCOCCOCCOCCNC(=O)c3cc(CNC(=O)CSCc4ccccc4)cc(C(=O)NCCOCCOCCOCCOCCOCCOCCOCCOCCOCCOCCOCCOCCOCCOCCOCCOCCOCCOCCOCCOCCOCCOCCOCCn4cc(C[C@H](N)C(=O)N[C@@H](Cc5ccc(O)cc5)C(=O)N[C@H]5CSSC[C@@H]6NC(=O)[C@@H]7CSSC[C@@H](C(=O)N[C@@H](CCCNC(=N)N)C(=O)N[C@@H](CCCCN)C(=O)N[C@H](C(=O)N[C@H](C(N)=O)[C@@H](C)CC)[C@@H](C)CC)NC(=O)[C@H](Cc8c[nH]c9ccccc89)NC(=O)[C@H](CC(C)C)NC(=O)[C@H](CCCCN)NC(=O)[C@H](CSSC[C@H](NC(=O)[C@H]([C@@H](C)O)NC(=O)[C@H](Cc8c[nH]c9ccccc89)NC(=O)[C@H](CCCC)NC(=O)[C@H](Cc8c[nH]c9ccccc89)NC(=O)[C@H](CCCCN)NC(=O)[C@H](CCC(N)=O)NC5=O)C(=O)N[C@@H](CC(=O)O)C(=O)N[C@@H](CO)C(=O)N[C@@H](CCCCN)C(=O)N[C@@H](CCCNC(=N)N)C(=O)N[C@@H](C)C(=O)N7)NC(=O)[C@H](CCCNC(=N)N)NC(=O)[C@H](CC(C)C)NC(=O)CNC(=O)[C@H](CCC(=O)O)NC6=O)nn4)c3)nn2)CSSC[C@@H]2NC(=O)[C@@H]3CSSC[C@@H](C(=O)N[C@@H](CCCNC(=N)N)C(=O)N[C@@H](CCCCN)C(=O)N[C@H](C(=O)N[C@H](C(N)=O)[C@@H](C)CC)[C@@H](C)CC)NC(=O)[C@H](Cc4c[nH]c5ccccc45)NC(=O)[C@H](CC(C)C)NC(=O)[C@H](CCCCN)NC(=O)[C@H](CSSC[C@H](NC(=O)[C@H]([C@@H](C)O)NC(=O)[C@H](Cc4c[nH]c5ccccc45)NC1=O)C(=O)N[C@@H](CC(=O)O)C(=O)N[C@@H](CO)C(=O)N[C@@H](CCCCN)C(=O)N[C@@H](CCCNC(=N)N)C(=O)N[C@@H](C)C(=O)N3)NC(=O)[C@H](CCCNC(=N)N)NC(=O)[C@H](CC(C)C)NC(=O)CNC(=O)[C@H](CCC(=O)O)NC2=O` [Homodimeric Conjugate No. 2, Bis-{Atz(PEG23*)-[Nle6]JzTx-V(1-29)}-5-((2-(benzylthio)acetamido)methyl)isophthalamide] the Nav1.4/Nav1.7 (hNav1.4) was 5 and 3.
With `C#CC[C@@H]1NC(=O)[C@@H]2CSSC[C@H](NC(=O)[C@@H](N)CC#N)C(=O)N[C@@H](CCC(N)=O)C(=O)N[C@@H](CCCCN)C(=O)N[C@@H](Cc3c[nH]c4ccccc34)C(=O)N[C@@H](CCCC)C(=O)N[C@@H](Cc3c[nH]c4ccccc34)C(=O)N[C@@H]([C@@H](C)O)C(=O)N[C@H]3CSSC[C@H](NC(=O)[C@H](CCCNC(=N)N)NC(=O)[C@H](CC(C)C)NC(=O)CNC1=O)C(=O)N[C@@H](CCC(N)=O)C(=O)N[C@@H](CC(C)C)C(=O)N[C@@H](Cc1c[nH]c4ccccc14)C(=O)N[C@H](C(=O)N[C@@H](CCCNC(=N)N)C(=O)N[C@@H](CCCCN)C(=O)N[C@@H](CCC(=O)O)C(=O)N[C@H](C(N)=O)[C@@H](C)CC)CSSC[C@H](NC(=O)[C@H](C)NC(=O)[C@H](CCCNC(=N)N)NC(=O)[C@H](CCCCN)NC(=O)[C@H](CO)NC(=O)[C@H](CC(=O)O)NC3=O)C(=O)N2` [compound 1680] the IC50 (hNav1.7; Table 12, PatchXpress, tonic block, read-out: PX hNav1.7 Tonic IC50) was 47.6 nM.
“[Phe6,Atz(500 Da EtO-PEG*-[Phe6,Atz13*]GpTx-1(1-34)1)13]GpTx-1(1-34) [Homodimeric Conjugate No. 4]” was tested, and the Wash out (hNav1.7) was “Yes” and the IC50 (hNav1.7; read-out: Nav1.7 PX IC50) was 19 nM.
